Laboratory results as given in patent US20240270701A1, “BETA ADRENERGIC AGONIST AND METHODS OF USING THE SAME” (Curasen Therapeutics, Inc., priority 2021, published 2024).
Read-outs that look alike come from different tables or passages of the source.

Columns and labels:
B1-AR = biological target: T1, B1-AR (Homo sapiens, UniProt P08588); assay: cAMP Gs dynamic HTRF assay, cells expressing beta-adrenergic receptor (CHO-K1), B1-AR; assay type: cell-based; details: for EC50: cAMP HTRF, read-out: pEC50 [B1-AR] (converted); for Emax: relative to full agonist isoproterenol, read-out: Emax (% iso) (%) [B1-AR]
T1 construct: expressed in transfected cells; host or cells: CHO-K1
T1 sequence (P08588 whole entry, species assumed): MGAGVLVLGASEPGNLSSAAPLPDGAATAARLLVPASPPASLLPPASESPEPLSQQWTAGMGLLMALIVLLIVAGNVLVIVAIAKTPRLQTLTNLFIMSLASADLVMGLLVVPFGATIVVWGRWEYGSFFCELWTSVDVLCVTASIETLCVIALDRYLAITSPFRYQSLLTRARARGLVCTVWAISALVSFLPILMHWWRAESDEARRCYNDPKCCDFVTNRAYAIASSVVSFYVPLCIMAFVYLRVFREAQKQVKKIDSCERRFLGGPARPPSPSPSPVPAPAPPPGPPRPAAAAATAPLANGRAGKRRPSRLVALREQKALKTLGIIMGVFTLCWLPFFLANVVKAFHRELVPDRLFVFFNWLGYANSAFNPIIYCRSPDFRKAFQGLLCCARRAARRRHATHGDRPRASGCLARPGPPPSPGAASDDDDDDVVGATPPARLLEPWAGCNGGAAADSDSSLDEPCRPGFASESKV
Experimental: (§1) cAMP homogeneous time-resolved fluorescence (HTRF): experimental methods. Compound efficacy is determined using the cAMP Gs dynamic HTRF assay (Cisbio, catalog #62AM4PEC) largely following the manufacturer's instructions, also detailed below.
(§2) Standard serial dilution curves are 10-point, 5-fold dilutions starting from a highest concentration of 10 μM. Controls present on every assay plate are 0.1% DMSO (vehicle control), 1 μM isoproterenol (full beta-adrenergic agonist control) and […] xamoterol (partial beta-adrenergic agonist control). […] Assay plates are centrifuged at 500×g for 10 seconds. Compounds and IBMX are prepared at 2× final dose to compensate for addition of cells.
(§3) Cell preparation: 1× stimulation buffer, washing PBS (Dulbecco's phosphate-buffered saline, − Mg − Ca; Caisson Labs, catalog #PBL01), assay PBS (Dulbecco's phosphate-buffered saline, + Mg, + Ca; Caisson Labs, catalog #PBL02) and Versene (0.02% EDTA disodium salt solution in PBS without calcium or magnesium; Caisson Labs, catalog #EDL01) are pre-warmed to 37° C. Cells expressing beta-adrenergic receptor were washed in washing PBS to remove growth medium and then released from the surface by incubating with Versene for 5-10 minutes at 37° C. Cells are harvested using assay PBS, counted manually by hemocytometer or by an automated cell counter, pelleted by centrifugation (200×g, 5 minutes) and resuspended in 37° C. 1× stimulation buffer to a final density of 1.5×10^6 cells/mL. 5 μL of the suspended cell solution (7500 cell total) are added to all wells of the 384 well assay plate, the assay plate was covered with an Axygen® plate seal (Corning PCR-SP) and incubated in a humidified 37° C. environment supplemented with 5% CO2 for 30 minutes.
(§4) HTRF reagent addition, reading and data analysis: After 30 minutes of cell stimulation with test compound, the assay plates are centrifuged at 500×g for 10 seconds, and incubation was stopped with the addition of 5 μL cAMP-D2 acceptor, diluted 1:21 in detection and lysis buffer 2 (Cisbio 62CL2FDF) was added to all cells. Subsequently, 5 μL Anti-cAMP-Eu Donor, diluted 1:21 in detection and lysis buffer 2, was added to cells. Plates were sealed and reactions gently ‘vortexed’ at 900 rpm on a Heidolph Titramax 1000 for at least 30 minutes at room temperature. Plates are centrifuged again at 500×g for 10 seconds, and HTRF was measured using a Tecan Spark plate reader at 50 flashes per well. […] Potency estimates (EC50 and pEC50) are derived from the four-parameter nonlinear regression of the concentration-effect curve and an estimate of relative efficacy is determined by comparing the magnitude of the test compound HTRF signal window (min−max dose) with the signal window of the full agonist control, isoproterenol.

B2-AR = biological target: T2, B2-AR (Homo sapiens, UniProt P07550); assay: cAMP Gs dynamic HTRF assay, cells expressing beta-adrenergic receptor (CHO-K1), B2-AR; assay type: cell-based; details: for Emax: relative to full agonist isoproterenol, read-out: Emax (% iso) (%) [B2-AR]; for EC50: cAMP HTRF, read-out: pEC50 [B2-AR] (converted)
T2 construct: expressed in transfected cells; host or cells: CHO-K1
T2 sequence (P07550 whole entry, species assumed): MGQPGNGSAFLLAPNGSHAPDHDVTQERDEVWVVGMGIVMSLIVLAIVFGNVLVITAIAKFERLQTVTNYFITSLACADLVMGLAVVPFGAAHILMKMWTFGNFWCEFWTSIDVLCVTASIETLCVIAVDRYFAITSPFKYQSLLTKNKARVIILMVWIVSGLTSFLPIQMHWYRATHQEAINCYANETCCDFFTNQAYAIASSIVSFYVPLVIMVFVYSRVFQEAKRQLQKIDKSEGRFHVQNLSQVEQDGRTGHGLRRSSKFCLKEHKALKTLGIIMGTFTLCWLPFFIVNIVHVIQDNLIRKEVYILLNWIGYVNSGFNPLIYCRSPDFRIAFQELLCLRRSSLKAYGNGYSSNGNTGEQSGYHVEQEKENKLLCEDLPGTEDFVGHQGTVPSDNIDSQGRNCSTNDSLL
Experimental: as §1, §2, §3, §4

Structure (SMILES)	EC50 (B1-AR) [nM]	Emax (B1-AR) [%]	Emax (B2-AR; CHO-K1, CHO-K1 cells) [%]	EC50 (B2-AR; CHO-K1 cells) [nM]	Emax (B2-AR; CHO-K1 cells) [%]
CCC(CC)NC[C@H](O)c1cccc2[nH]nc(F)c12 [I-42]	10 to 100	> 90	70 to 90	< 10	
CC(C)(NC[C@H](O)c1cc(F)cc2[nH]ncc12)C1CC1 [I-19]	< 10	> 90	> 90	< 10	
CC(C)[C@@H](C)NC[C@H](O)c1cc(F)cc2[nH]ncc12 [I-27]	< 10	> 90		< 10	> 90
CC(C)(C)C(C)(C)NC[C@H](O)c1ccc(F)c2[nH]ncc12 [I-8]	> 1000	70 to 90		< 10	> 90
CC(C)CNC[C@H](O)c1ccc(Cl)c2[nH]ncc12 [I-117]	10 to 100	50 to 70		10 to 100	70 to 90
CC(C)(C)CNC[C@H](O)c1cccc2[nH]nc(F)c12 [I-90]	100 to 1000	70 to 90	> 90	10 to 100	
C[C@@H](NC[C@H](O)c1ccc(F)c2[nH]ncc12)C(C)(C)C [I-16]	10 to 100	> 90	> 90	< 10	
COc1ccc(C[C@@H](C)NC[C@H](O)c2cccc3[nH]nc(F)c23)cc1 [I-18]	< 10	> 90		< 10	> 90
Cn1ccc(CNC[C@H](O)c2cccc3[nH]ncc23)n1 [I-64]	100 to 1000	70 to 90		100 to 1000	> 90
CC1(NC[C@H](O)c2cccc3[nH]ncc23)CC1 [I-129]	< 10	> 90		< 10	> 90
CC(C)C(C)(C)NC[C@H](O)c1cc(F)cc2[nH]ncc12 [I-32]	10 to 100	> 90		< 10	> 90
Cc1ncccc1[C@@H](O)CNC1(C)CC1 [I-188]	100 to 1000	> 90	> 90	10 to 100	
Cc1nc(N)c(F)cc1[C@H](CO)NC(C)(C)C [I-180]	> 1000	< 50		> 1000	< 50
CC(C)NC[C@H](O)c1cccc2[nH]nc(Cl)c12 [I-101]	< 10	> 90		< 10	> 90
CC(C)(CO)NC[C@H](O)c1cccc2[nH]cc(F)c12 [I-109]	10 to 100	> 90		10 to 100	> 90
Cc1ncccc1[C@@H](O)CNC1(C)CCC1 [I-177]	> 1000	70 to 90	> 90	10 to 100	
COc1ccc(C[C@@H](C)NC[C@H](O)c2cc(F)cc3[nH]ncc23)cc1 [I-15]	< 10	> 90		< 10	> 90
Cc1n[nH]c2cccc([C@@H](O)CNC(C)C)c12 [I-170]	100 to 1000	70 to 90		10 to 100	70 to 90

Structure (SMILES)	EC50 (B1-AR) [nM]	Emax (B1-AR) [%]	Emax (B2-AR; CHO-K1, CHO-K1 cells) [%]	EC50 (B2-AR; CHO-K1 cells) [nM]	Emax (B2-AR; CHO-K1 cells) [%]
CC(C)(NC[C@H](O)c1ccc(F)c2[nH]ncc12)C1CC1 [I-21]	< 10	> 90		< 10	> 90
Cc1ncccc1[C@@H](O)CNC1CC(C)(C)C1 [I-182]	> 1000	< 50		> 1000	50 to 70
CC1(NC[C@H](O)c2ccc(Cl)c3[nH]ncc23)CCC1 [I-118]	< 10	70 to 90	70 to 90	< 10	
CC(C)(C)NC[C@H](O)c1ccc(OC(F)F)c2[nH]ncc12 [I-102]	100 to 1000	50 to 70	< 50	< 10	
Cc1cnc2ccc([C@@H](O)CNC(C)(C)C)cc2c1 [I-73]	> 1000	< 50		100 to 1000	< 50
CCC(C)(CC)NC[C@H](O)c1cc(F)cc2[nH]ncc12 [I-26]	< 10	> 90	> 90	< 10	
CCC(C)(C)NC[C@H](O)c1ccc(F)c2[nH]ncc12 [I-50]	< 10	70 to 90		< 10	70 to 90
CC(C)NC[C@H](O)c1cc(C#N)cc2[nH]ncc12 [I-161]	10 to 100	> 90		10 to 100	> 90
CC(C)(C)CNC[C@H](O)c1ccc(F)c2[nH]ncc12 [I-87]	100 to 1000	50 to 70		10 to 100	70 to 90
C[C@H](NC[C@H](O)c1ccc(Cl)c2[nH]ncc12)C(C)(C)C [I-3]	100 to 1000	50 to 70	70 to 90	< 10	
CC(C)(C)CNC[C@H](O)c1cc(F)cc2[nH]ncc12 [I-92]	10 to 100	70 to 90	> 90	< 10	
Cc1ncccc1[C@@H](O)CNC(C)(C)CO [I-176]	> 1000	50 to 70	70 to 90	100 to 1000	
C[C@@H](NC[C@H](O)c1ccc(F)c2[nH]ncc12)C1CC1 [I-10]	< 10	70 to 90	> 90	< 10	
Cc1cc([C@@H](O)CNC2CC2)c2cn[nH]c2c1 [I-135]	< 10	70 to 90		< 10	70 to 90
CC1(NC[C@H](O)c2cccc3[nH]cc(F)c23)CC1 [I-107]	< 10	> 90	> 90	< 10	
CC(C)(C)NC[C@H](O)c1cccc2[nH]nc(Cl)c12 [I-114]	< 10	> 90	> 90	< 10	
COc1ccnc2ccc([C@@H](O)CNC(C)(C)C)cc12 [I-74]	100 to 1000	< 50	< 50	> 1000	
Cn1nc(F)c2c([C@@H](O)CNC(C)(C)C)cccc21 [I-55]	< 10	70 to 90		< 10	50 to 70
